Test system: modified version of the GPR119 receptor (94% identity to human receptor)
Experiment: cAMP production assay (LANCE cAMP kit, TR-FRET) in HEK-293 cells
Type: cell-based
Settings: for cAMP production in HEK-293 cells: HEK-293 cells stably expressing modified GPR119, test compounds 0.2 nM to 10 μM, one-hour incubation at ambient temperature; for Fold over baseline: increase in cAMP relative to basal levels, agonist activity if 1.5-fold or greater
Summary of the method: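 Doxycycline-induced (1 μg/mL, overnight) HEK-293 cells expressing modified GPR119 were thawed, 2000 cells/well, and exposed to compounds (0.2 nM-10 μM final, 0.5% DMSO) for 1 h at ambient temperature in HBSS/HEPES/BSA. cAMP was measured by LANCE TR-FRET against a standard curve. Agonism was defined as ≥1.5-fold over basal.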

| SMILES | cAMP production in HEK-293 cells [nmol] | Fold over baseline |
| --- | --- | --- |
| CS(=O)(=O)c1ccc(N[C@H]2CCCN(C3CCN(c4ncc(C(F)(F)F)cc4F)CC3)C2=O)c(F)c1 [Example 146, (S)-3-(2-fluoro-4-(methylsulfonyl)phenyl-amino)-1′-(3-fluoro-5-(trifluoromethyl)pyridin-2-yl)-1,4′-bipiperidin-2-one] | 34.6 | 2.6 |
| CS(=O)(=O)c1ccc(O[C@H]2CCN(C3CCN(c4ncc(C(F)(F)F)cc4Cl)CC3)C2=O)cn1 [Example 143, (S)-1-(1-(3-chloro-5-(trifluoromethyl)pyridin-2-yl)piperidin-4-yl)-3-(6-(methylsulfonyl)pyridin-3-yloxy) pyrrolidin-2-one] | 13.3 | 4.3 |
| CCc1cnc(N2CCC(N3CC[C@H](Nc4ccc(S(=O)(=O)CC)cc4F)C3=O)CC2)nc1 [Example 34, (S)-1-(1-(5-ethylpyrimidin-2-yl)piperidin-4-yl)-3-(4-(ethylsulfonyl)-2-fluorophenylamino)pyrrolidin-2-one] | 11.4 | 2.8 |
| CS(=O)(=O)c1cc(F)c(N[C@H]2CCN(C3CCN(c4cnc(Br)cn4)CC3)C2=O)cc1F [Example 15, (S)-1-(1-(5-bromopyrazin-2-yl)piperidin-4-yl)-3-(2,5-difluoro-4-(methylsulfonyl)phenylamino)pyrrolidin-2-one] | 24.2 | 4.2 |
| CS(=O)(=O)c1ccc(O[C@@H]2C(=O)N(C3CCN(c4cnc(Cl)cn4)CC3)C[C@@H]2O)c(F)c1 [Example 39, (3S,4S)-1-(1-(5-chloropyrazin-2-yl)piperidin-4-yl)-3-(2-fluoro-4-(methylsulfonyl)phenoxy)-4-hydroxypyrrolidin-2-one] | 20.6 | 3.7 |
| CS(=O)(=O)c1cc(F)c(O[C@H]2CCN(C3CCN(c4ncc(Br)cn4)CC3)C2=O)cc1F [Example 90, (S)-1-(1-(5-bromopyrimidin-2-yl)piperidin-4-yl)-3-(2,5-difluoro-4-(methylsulfonyl)phenoxy)pyrrolidin-2-one] | 11.7 | 2.7 |
| CS(=O)(=O)c1ccc(N[C@H]2CCCN(C3CCN(c4ncc(C(F)(F)F)cc4Cl)CC3)C2=O)c(F)c1 [Example 145, (S)-1′-(3-chloro-5-(trifluoromethyl)pyridin-2-yl)-3-(2-fluoro-4-(methylsulfonyl)phenyl-amino)-1,4′-bipiperidin-2-one] | 28.3 | 2.1 |
| O=C1[C@@H](Oc2ccc3[nH]ncc3c2)CCN1C1CCN(c2cnc(Cl)cn2)CC1 [Example 74, (S)-3-(1H-indazol-5-yloxy)-1-(1-(5-chloropyrazin-2-yl)piperidin-4-yl)pyrrolidin-2-one] | 8.6 | 2.2 |
| Cc1cc(S(C)(=O)=O)ncc1N[C@H]1CCN(C2CCN(c3ncc(Cl)cc3Cl)CC2)C1=O [Example 125, (S)-1-(1-(3,5-dichloro-pyridin-2-yl)piperidin-4-yl)-3-(4-methyl-6-(methylsulfonyl)pyridin-3-ylamino)pyrrolidin-2-one] | 9.0 | 2.0 |
| CSc1cnc(N2CCC(N3CC[C@H](Nc4ccc(S(C)(=O)=O)cc4F)C3=O)CC2)nc1 [Example 30, (S)-3-(2-fluoro-4-(methylsulfonyl)phenylamino)-1-(1-(5-(methylthio)pyrimidin-2-yl)piperidin-4-yl)pyrrolidin-2-one] | 6.6 | 2.0 |
| CCc1cnc(N2CCC(N3CCCC[C@H](Nc4ccc(S(C)(=O)=O)cc4F)C3=O)CC2)nc1.Cl [Example 79] | 18.0 | 3.8 |
| CN(CCO)C(=O)c1ccc(O[C@H]2CCN(C3CCN(c4ncc(Cl)cc4F)CC3)C2=O)c(F)c1 [Example 154, (S)-4-(1-(1-(5-chloro-3-fluoropyridin-2-yl)piperidin-4-yl)-2-oxopyrrolidin-3-yloxy)-3-fluoro-N-(2-hydroxyethyl)-N-methylbenzamide] | 14.6 | 3.1 |
| CS(=O)(=O)c1ccc(N[C@H]2CCCCN(C3CCN(c4cnc(Cl)cn4)CC3)C2=O)c(F)c1.Cl [Example 80, (S)-1-(1-(5-chloropyrazin-2-yl)piperidin-4-yl)-3-(2-fluoro-4-(methylsulfonyl)phenylamino)azepan-2-one hydrochloride] | 18.3 | 3.7 |
| CCc1cnc(N2CCC(N3CCCC[C@H](Nc4cc(F)c(S(C)(=O)=O)cc4F)C3=O)CC2)nc1.Cl [Example 82, (S)-3-(2,5-difluoro-4-(methylsulfonyl)phenylamino)-1-(1-(5-ethylpyrimidin-2-yl)piperidin-4-yl)azepan-2-one hydrochloride] | 18.5 | 4.0 |
| CCc1cnc(N2CCC(N3CCC(Oc4cc(F)c(S(C)(=O)=O)cc4F)C3=O)CC2)nc1 (stereo not drawn) [Example 87, 3-(2,5-difluoro-4-(methylsulfonyl)phenoxy)-1-(1-(5-ethylpyrimidin-2-yl)piperidin-4-yl)pyrrolidin-2-one trifluoroactetate] | 5.5 | 1.8 |
| N#Cc1ccc(N[C@H]2CCN(C3CCN(c4ncc(C(F)(F)F)cc4Cl)CC3)C2=O)c(F)c1 [Example 152, (S)-4-(1-(1-(3-chloro-5-(trifluoromethyl)pyridin-2-yl)piperidin-4-yl)-2-oxopyrrolidin-3-ylamino)-3-fluorobenzonitrile] | 26.6 | 3.3 |
| CS(=O)(=O)c1ccc(N[C@H]2CCN(C3CCN(c4ncc(Cl)cc4F)CC3)C2=O)c(F)c1 [Example 115, (S)-1-(1-(5-chloro-3-fluoropyridin-2-yl)piperidin-4-yl)-3-(2-fluoro-4-(methylsulfonyl)phenyl-amino)pyrrolidin-2-one] | 15.4 | 3.8 |
| CS(=O)(=O)c1cc(F)c(N[C@H]2CCCN(C3CCN(c4cnc(Cl)cn4)CC3)C2=O)cc1F [Example 57, (S)-1′-(5-chloropyrazin-2-yl)-3-(2,5-difluoro-4-(methylsulfonyl)phenylamino)-[1,4′-bipiperidin]-2-one] | 22.8 | 3.3 |
| Cc1cc(N[C@H]2CCN(C3CCN(c4cnc(Cl)cn4)CC3)C2=O)cnc1S(C)(=O)=O (stereo in doubt) [Example 135, 1-(1-(5-chloropyrazin-2-yl)piperidin-4-yl)-3-(5-methyl-6-(methylsulfonyl)pyridin-3-ylamino)pyrrolidin-2-one] | 31.0 | 6.6 |
| CC(O)c1cnc(N2CCC(N3CCC[C@H](Nc4cc(F)c(S(C)(=O)=O)cc4F)C3=O)CC2)nc1 (stereo partly drawn) [Example 64, (3S)-3-(2,5-difluoro-4-(methylsulfonyl)phenylamino)-1′-(5-(1-hydroxyethyl)pyrimidin-2-yl)-[1,4′-bipiperidin]-2-one] | 7.4 | 2.0 |
| CCc1cnc(N2CCC(N3CCC[C@H](Nc4c(F)cc(S(C)(=O)=O)cc4F)C3=O)CC2)nc1 [Example 49, (S)-3-(2,6-difluoro-4-(methylsulfonyl)phen-ylamino)-1′-(5-ethylpyrimidin-2-yl)-[1,4′-bipiperidin]-2-one] | 10.6 | 2.2 |
| CS(=O)(=O)c1ccc(O[C@H]2CCN(C3CCN(c4ncc(Cl)cc4F)CC3)C2=O)c(F)c1 [Example 139, (S)-1-(1-(5-chloro-3-fluoropyridin-2-yl)piperidin-4-yl)-3-(2-fluoro-4-(methylsulfonyl)phenoxy) pyrrolidin-2-one] | 26.6 | 5.0 |
| CCc1cnc(N2CCC(N3CCC[C@H](Nc4ccc(S(C)(=O)=O)cc4F)C3=O)CC2)nc1 [Example 40, (S)-1′-(5-ethylpyrimidin-2-yl)-3-(2-fluoro-4-(methylsulfonyl)phenylamino)-[1,4′-bipiperidin]-2-one] | 12.4 | 2.2 |
| CS(=O)(=O)c1ccc(O[C@H]2CCN(C3CCN(c4ncc(Cl)cc4F)CC3)C2=O)cn1 [Example 144, (S)-1-(1-(5-chloro-3-fluoropyridin-2-yl)piperidin-4-yl)-3-(6-(methylsulfonyl)pyridin-3-yloxy)pyrrolidin-2-one] | 19.6 | 2.9 |
| CS(=O)(=O)c1cc(F)c(N[C@H]2CCN(C3CCN(c4cnc(C(F)(F)F)cn4)CC3)C2=O)cc1F [Example 11, (S)-3-(2,5-difluoro-4-(methylsulfonyl)phenylamino)-1-(1-(5-(trifluoromethyl)pyrazin-2-yl)piperidin-4-yl)pyrrolidin-2-one] | 27.1 | 3.4 |
| CS(=O)(=O)c1cc(F)c(N[C@H]2CCCCN(C3CCN(c4nccnc4C#N)CC3)C2=O)cc1F.Cl [Example 85, (S)-3-(4-(3-(2,5-difluoro-4-(methylsulfonyl)phenylamino)-2-oxoazepan-1-yl)piperidin-1-yl)pyrazine-2-carbonitrile hydrochloride] | 6.5 | 1.9 |
| Cc1cc(S(C)(=O)=O)ncc1N[C@H]1CCN(C2CCN(c3cnc(Cl)cn3)CC2)C1=O [Example 123, (S)-1-(1-(5-chloropyrazin-2-yl)piperidin-4-yl)-3-(4-methyl-6-(methylsulfonyl)pyridin-3-ylamino) pyrrolidin-2-one] | 15.8 | 3.5 |
